Assay [1] deals with T1, Human Kv1.5 channels (Homo sapiens, UniProt P22460).
T1 construct: expressed in transfected cells; host or cells: Xenopus laevis oocytes injected with RNA synthesized in vitro
The assay is described as follows: Activity on the Kv1.5 channel: two-microelectrode voltage clamp on Xenopus oocytes expressing Kv1.5. In kind it is cell-based. Conditions: human Kv1.5 expressed in Xenopus oocytes, room temperature, Hill equation; read-out: Kv1.5 IC-50. The protocol:
Determination of the Activity on the Kv1.5 Channel
Human Kv1.5 channels were expressed in xenopus oocytes. For this purpose, firstly oocytes were isolated from Xenopus laevis and defolliculated. Kv1.5-encoding RNA synthesized in vitro was then injected into these oocytes. After Kv1.5 protein expression for 1-7 days, Kv1.5 currents were measured on the oocytes using the two-microelectrode voltage clamp technique. The Kv1.5 channels were in this case usually activated with voltage jumps lasting 500 ms to 0 mV and 40 mV. A solution of the following composition flowed through the bath: NaCl 96 mM, KCl 2 mM, CaCl2 1.8 mM, MgCl2 1 mM, HEPES 5 mM (titrated to pH 7.4 with NaOH). These experiments were carried out at room temperature. The following were employed for data acquisition and analysis: Geneclamp amplifier (Axon Instruments, Foster City, USA) and MacLab D/A converter and software (ADInstruments, Castle Hill, Australia). The substances of the invention were tested by adding them in various concentrations to the bath solution. The effects of the substances were calculated as percent inhibition of the Kv1.5 control current which was obtained when no substance was added to the solution. The data were then extrapolated using the Hill equation in order to determine the inhibitory concentrations IC50 for the respective substances.

Assay [2] deals with Human TASK-1 channels (UniProt O35111). The assay is described as follows: Activity on the TASK-1 channel: two-microelectrode voltage clamp on Xenopus oocytes expressing TASK-1. In kind it is cell-based. Conditions: TASK-1 expressed in Xenopus oocytes, room temperature, Hill equation; read-out: mTask-1 IC-50.

T1 sequence (P22460 whole entry): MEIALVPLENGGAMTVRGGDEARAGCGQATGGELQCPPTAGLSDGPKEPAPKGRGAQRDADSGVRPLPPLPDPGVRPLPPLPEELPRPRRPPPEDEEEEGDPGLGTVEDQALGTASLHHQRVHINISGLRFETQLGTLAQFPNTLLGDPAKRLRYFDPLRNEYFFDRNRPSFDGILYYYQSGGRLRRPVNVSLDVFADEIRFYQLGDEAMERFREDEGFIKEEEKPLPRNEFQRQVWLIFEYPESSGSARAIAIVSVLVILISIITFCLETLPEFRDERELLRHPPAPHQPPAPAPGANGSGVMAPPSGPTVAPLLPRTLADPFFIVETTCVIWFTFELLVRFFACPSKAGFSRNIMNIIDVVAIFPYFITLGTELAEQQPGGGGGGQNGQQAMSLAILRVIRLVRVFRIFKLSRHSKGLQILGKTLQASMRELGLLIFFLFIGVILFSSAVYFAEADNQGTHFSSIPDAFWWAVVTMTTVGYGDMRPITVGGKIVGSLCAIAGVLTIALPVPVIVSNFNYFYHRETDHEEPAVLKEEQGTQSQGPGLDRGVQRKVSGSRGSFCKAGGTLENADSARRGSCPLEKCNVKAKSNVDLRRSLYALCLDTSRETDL

In the case of `CO[C@H](c1ccc(Cl)cc1)[C@H](c1ccccc1)N1CCCC1=O` (racemic) [Example 46], the IC50 in assay [1] is 1500 nM; in assay [2], 5400 nM. Consider `N#Cc1ccc(O[C@@H](c2cccc3cccnc23)[C@@H](c2ccc(F)cc2)N2CCCC2=O)cc1` (racemic) [Example 9, 4-[(1S′,2R′)-2-(4-Fluorophenyl)-2-(2-oxopyrrolidin-1-yl)-1-quinolin-8-ylethoxy]benzonitrile], for which the IC50 in assay [1] turned out to be 4200 nM; in assay [2], 400 nM. As to `N#Cc1ccc(O[C@H](c2ccc(F)c(F)c2)[C@H](c2ccc(F)cc2)N2CCCC2=O)cc1` (racemic) [Example 4, 4-[(1R′,2S′)-1-(3,4-Difluorophenyl)-2-(4-fluorophenyl)-2-(2-oxopyrrolidin-1-yl)ethoxy]benzonitrile], the IC50 in assay [1] was 3900 nM; in assay [2] it was 2300 nM. Turning to `C#CCO[C@H](c1ccc(F)c(F)c1)[C@H](c1ccc(F)cc1)N1C(=O)CCC1C` (mixture of isomers) [Example 26], in assay [1], the IC50 turned out to be 1000 nM. Regarding `O=C1CCCCN1[C@@H](c1ccc(F)cc1)[C@H](OCCCC(F)(F)F)c1cccnc1` (racemic) [Example 118], the IC50 in assay [1] was 800 nM. Consider `O=C1CCCN1[C@H](c1ccc(F)cc1)[C@H](OCC1CC1)c1ccc(F)cc1` (racemic) [Example 27], for which the IC50 in assay [1] stood at 600 nM. Same read-out and setting: in the case of `CCCO[C@H](c1ccc(F)cc1)[C@@H](c1ccc(F)cc1)N1CCCC1=O` (racemic) [Example 33] it was 900 nM.

The record behind these values is patent US7825264B2, “Substituted heterocycles, their use as medicament, and pharmaceutical preparations comprising them” (sanofi-aventis, priority 2005, dated 2010).
